ChEMBL document CHEMBL4024738, “Design of antitumor agents containing carbohydrate based on GLUT1, and evaluation of antiproliferative activity” (Bioorg Med Chem Lett, 2017)
pIC50: −log10 of the molar value.

Columns and labels:
[1] = target: T1, Solute carrier family 2, facilitated glucose transporter member 1 (Homo sapiens, UniProt P11166); assay: Substrate activity at GLUT1 in human A549 cells assessed cellular uptake at 20 uM after 8 hrs by HPLC analysis relative to control; assay type: ADME, cell-based; settings: a549, 8 h
T1 sequence (P11166 whole entry): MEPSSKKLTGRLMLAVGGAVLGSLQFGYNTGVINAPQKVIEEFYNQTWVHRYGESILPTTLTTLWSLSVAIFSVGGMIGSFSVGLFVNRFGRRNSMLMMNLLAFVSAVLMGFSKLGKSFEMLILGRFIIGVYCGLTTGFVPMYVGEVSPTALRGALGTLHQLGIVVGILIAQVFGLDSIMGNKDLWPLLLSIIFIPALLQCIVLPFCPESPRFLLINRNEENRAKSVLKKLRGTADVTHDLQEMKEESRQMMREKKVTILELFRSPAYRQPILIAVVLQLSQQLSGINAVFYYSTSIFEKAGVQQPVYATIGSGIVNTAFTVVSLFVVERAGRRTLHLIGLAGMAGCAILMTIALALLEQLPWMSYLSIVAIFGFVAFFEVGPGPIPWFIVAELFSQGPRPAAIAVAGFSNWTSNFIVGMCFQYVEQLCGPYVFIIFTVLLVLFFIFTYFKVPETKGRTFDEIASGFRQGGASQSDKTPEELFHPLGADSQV

HeLa = assay: Antiproliferative activity against human HeLa cells after 48 hrs by MTT assay; assay type: functional, cell-based
A549 [2] = assay: Induction of apoptosis in human A549 cells after 48 hrs by annexin V-FITC/propidium iodide staining-based flow cytometric method; assay type: functional, cell-based
A549 [3] = assay: Induction of apoptosis in human A549 cells assessed as late apoptotic cells at 16 uM after 48 hrs by annexin V-FITC/propidium iodide staining-based flow cytometric method (reference value: 2.39%); assay type: functional
A549 [4] = assay: Induction of apoptosis in human A549 cells assessed as necrotic cells at 16 uM after 48 hrs by annexin V-FITC/propidium iodide staining-based flow cytometric method (reference value: 0.13%); assay type: functional
A549 [5] = assay: Cell cycle arrest in human A549 cells assessed as accumulation at G0/G1 phase at 16 uM after 48 hrs by propidium iodide staining based flow cytometric analysis (reference value: 42.86%); assay type: functional
[6] = Antiproliferative activity against human U87 cells after 48 hrs by MTT assay; assay type: functional, cell-based, U-87MG ATCC; settings: U-87 MG
HepG2 = assay: Antiproliferative activity against human HepG2 cells after 48 hrs by MTT assay; assay type: functional, cell-based; settings: HepG2, 48 h
A549 [7] = assay: Cell cycle arrest in human A549 cells assessed as accumulation at S phase at 24 uM after 48 hrs by propidium iodide staining based flow cytometric analysis (reference value: 54.85%); assay type: functional
A549 [8] = assay: Induction of apoptosis in human A549 cells assessed as live cells at 16 uM after 48 hrs by annexin V-FITC/propidium iodide staining-based flow cytometric method (reference value: 93.6%); assay type: functional
A549 [9] = assay: Induction of apoptosis in human A549 cells assessed as early apoptotic cells at 16 uM after 48 hrs by annexin V-FITC/propidium iodide staining-based flow cytometric method (reference value: 3.87%); assay type: functional
A549 [10] = assay: Cell cycle arrest in human A549 cells assessed as accumulation at G0/G1 phase after 48 hrs by propidium iodide staining based flow cytometric analysis; assay type: functional
A549 [11] = assay: Cell cycle arrest in human A549 cells assessed as accumulation at G2/M phase at 8 uM after 48 hrs by propidium iodide staining based flow cytometric analysis (reference value: 2.29%); assay type: functional
A549 [12] = assay: Cell cycle arrest in human A549 cells assessed as accumulation at S phase at 8 uM after 48 hrs by propidium iodide staining based flow cytometric analysis (reference value: 54.85%); assay type: functional
A549 [13] = assay: Antimigratory activity against human A549 cells assessed as reduction in cell migration towards wound area after 48 hrs by phase contrast microscopic method; assay type: functional, cell-based
[14] = target: T1, Solute carrier family 2, facilitated glucose transporter member 1; assay: Substrate activity at GLUT1 in human A549 cells assessed cellular uptake at 20 uM after 8 hrs in presence of 50 mM GLUT1 inhibitor EDG by HPLC analysis relative to control; assay type: ADME, cell-based; settings: a549, 8 h
A549 [15] = assay: Cell cycle arrest in human A549 cells assessed as accumulation at S phase at 16 uM after 48 hrs by propidium iodide staining based flow cytometric analysis (reference value: 54.85%); assay type: functional
[16] = target: T1, Solute carrier family 2, facilitated glucose transporter member 1; assay: Substrate activity at GLUT1 in human A549 cells assessed cellular uptake at 20 uM after 8 hrs in presence of 100 mM GLUT1 inhibitor EDG by HPLC analysis relative to control; assay type: ADME, cell-based; settings: a549, 8 h
A549 [17] = assay: Cell cycle arrest in human A549 cells assessed as accumulation at G0/G1 phase at 24 uM after 48 hrs by propidium iodide staining based flow cytometric analysis (reference value: 42.86%); assay type: functional
A549 [18] = assay: Induction of apoptosis in human A549 cells assessed as live cells at 24 uM after 48 hrs by annexin V-FITC/propidium iodide staining-based flow cytometric method (reference value: 93.6%); assay type: functional
[19] = target: T1, Solute carrier family 2, facilitated glucose transporter member 1; assay: Substrate activity at GLUT1 in human A549 cells assessed cellular uptake at 20 uM after 8 hrs in presence of 50 mM D-glucose by HPLC analysis relative to control; assay type: ADME, cell-based; settings: a549, 8 h
A549 [20] = assay: Induction of apoptosis in human A549 cells assessed as necrotic cells at 8 uM after 48 hrs by annexin V-FITC/propidium iodide staining-based flow cytometric method (reference value: 0.13%); assay type: functional
A549 [21] = assay: Induction of apoptosis in human A549 cells assessed as late apoptotic cells at 24 uM after 48 hrs by annexin V-FITC/propidium iodide staining-based flow cytometric method (reference value: 2.39%); assay type: functional
A549 [22] = assay: Cell cycle arrest in human A549 cells assessed as accumulation at G2/M phase at 24 uM after 48 hrs by propidium iodide staining based flow cytometric analysis (reference value: 2.29%); assay type: functional
[23] = target: T1, Solute carrier family 2, facilitated glucose transporter member 1; assay: Substrate activity at GLUT1 in human A549 cells assessed cellular uptake at 20 uM after 8 hrs in presence of 100 mM D-glucose by HPLC analysis relative to control; assay type: ADME, cell-based; settings: a549, 8 h
A549 [24] = assay: Antiproliferative activity against human A549 cells after 48 hrs by MTT assay; assay type: functional, cell-based; settings: A549, 48 h
A549 [25] = assay: Cell cycle arrest in human A549 cells assessed as accumulation at G2/M phase at 16 uM after 48 hrs by propidium iodide staining based flow cytometric analysis (reference value: 2.29%); assay type: functional
A549 [26] = assay: Induction of apoptosis in human A549 cells assessed as early apoptotic cells at 8 uM after 48 hrs by annexin V-FITC/propidium iodide staining-based flow cytometric method (reference value: 3.87%); assay type: functional
A549 [27] = assay: Potency index, ratio of gefitinib IC50 to compound IC50 against human A549 cells; assay type: functional
A549 [28] = assay: Induction of apoptosis in human A549 cells assessed as early apoptotic cells at 24 uM after 48 hrs by annexin V-FITC/propidium iodide staining-based flow cytometric method (reference value: 3.87%); assay type: functional
A549 [29] = assay: Induction of apoptosis in human A549 cells assessed as live cells at 8 uM after 48 hrs by annexin V-FITC/propidium iodide staining-based flow cytometric method (reference value: 93.6%); assay type: functional
A549 [30] = assay: Cell cycle arrest in human A549 cells assessed as accumulation at G0/G1 phase at 8 uM after 48 hrs by propidium iodide staining based flow cytometric analysis (reference value: 42.86%); assay type: functional
A549 [31] = assay: Induction of apoptosis in human A549 cells assessed as late apoptotic cells at 8 uM after 48 hrs by annexin V-FITC/propidium iodide staining-based flow cytometric method (reference value: 2.39%); assay type: functional
A549 [32] = assay: Induction of apoptosis in human A549 cells assessed as necrotic cells at 24 uM after 48 hrs by annexin V-FITC/propidium iodide staining-based flow cytometric method (reference value: 0.13%); assay type: functional

For `COc1cc(COC(C)C)c(Br)c(Br)c1O`, the Drug uptake [1] was “Not Active”.
In the case of `COc1cc(COC(C)C)c(Br)c(Br)c1OCCCO[C@@H]1O[C@H](CO)[C@@H](O)[C@H]1O`, the Drug uptake [1] was 60.3%, the pIC50 (HeLa) was 4.71 and the Activity (A549 [2]) was “Dose-dependent effect”. The Activity (A549 [3]) was 3.91%, the Activity (A549 [4]) was 0.32% and the Activity (A549 [5]) was 76.56%. The pIC50 [6] was 4.95, the pIC50 (HepG2) was 4.83 and the Activity (A549 [7]) was 10.25%. The Activity (A549 [8]) was 88.1%, the Activity (A549 [9]) was 7.66% and the Activity (A549 [10]) was “Dose-dependent effect”. The Activity (A549 [11]) was 0%, the Activity (A549 [12]) was 40.83% and the Activity (A549 [13]) was “Dose-dependent effect”. It also gave a Drug uptake [14] of 42.1%, an Activity (A549 [15]) of 23.44% and a Drug uptake [16] of 34.6%. For the same compound, the Activity (A549 [17]) was 89.56%, the Activity (A549 [18]) was 81.8% and the Drug uptake [19] was 51.6%. It also gave an Activity (A549 [20]) of 0.24%, an Activity (A549 [21]) of 4.35% and an Activity (A549 [22]) of 0.19%. It also gave a Drug uptake [23] of 49.1%, a pIC50 (A549 [24]) of 4.94 and an Activity (A549 [25]) of 0%. The Activity (A549 [26]) was 4.18%, the “Ratio IC50” value (A549 [27]) was 2 and the Activity (A549 [28]) was 13.7%. For the same compound, the Activity (A549 [29]) was 91.8%, the Activity (A549 [30]) was 59.17% and the Activity (A549 [31]) was 3.75%. For the same compound, the Activity (A549 [32]) was 0.15%.
With `COc1cc(CO)c(Br)c(Br)c1OCCCO[C@@H]1O[C@H](CO)[C@@H](O)[C@H]1O` the pIC50 (HeLa) was 4.69, the pIC50 [6] was 4.95 and the pIC50 (HepG2) was 4.73. For the same compound, the pIC50 (A549 [24]) was 4.63.
